Experiments:
[1] = molecular target: T1, rat H1 receptor (Rattus norvegicus, UniProt P31390); experiment: Rat H1 receptor affinity test (Test Example 1); format: binding; conditions: rat cerebrum membrane preparation, [3H]-pyrilamine 2 nmol/L
T1 construct: An H1 receptor membrane preparation was prepared from rat cerebrum; from tissue; host or cells: rat cerebrum
Description: An H1 receptor membrane preparation was prepared from rat cerebrum. […] To the resulting each sample, 50 μL of 8 nmol/L [^3H]-pyrilamine (manufactured by PerkinElmer) (final concentration: 2 nmol/L) was added and mixed. After the mixture was incubated at a room temperature for 30 minutes, the reaction solution was collected on a glass filter by a cell harvester (manufactured by Molecular Devices), and then the filter was washed with the incubation buffer. The glass filter was cut off and transferred in a vial. To the vial was added 5 mL of a scintillator (manufactured by National Diagnostics), and the mixture was shaken for not less than one hour. Thereafter, the radioactive concentration was measured by a liquid scintillation counter.

[2] = molecular target: T2, human H1 receptor (Homo sapiens, UniProt P35367); experiment: Human H1 receptor affinity test (Test Example 2); format: binding; conditions: CHO cell membrane preparation expressing human H1 receptor, [3H]-pyrilamine 2 nmol/L
T2 construct: purchased; host or cells: CHO cells
Description: Chinese hamster ovarian cells (CHO cells) having human H1 receptor forcibly express were purchased and used as an H1 receptor membrane preparation. […] To the resulting each sample, 50 μL of 8 nmol/L [^3H]-pyrilamine (final concentration: 2 nmol/L) was added and mixed. […] The glass filter was cut off and transferred in a vial. To the vial was added 5 mL of a scintillator (manufactured by National Diagnostics), and the mixture was shaken for not less than one hour. Thereafter, the radioactive concentration was measured by a liquid scintillation counter.

[3] = system: histamine-induced skin reaction in rat; experiment: Histamine-induced skin reaction test in rat (Test Example 3); format: in vivo; conditions: oral, histamine 10 μg/0.1 mL/site intradermal, pigment area, read-out: Skin reaction test in rat ID50
Description: […] One hour after the administration, a 1% Evans Blue physiological saline solution (Tokyo Chemical Industry Co., Ltd.) was administered into the caudal vein in a dose of 5 mL/kg, and immediately histamine 10 μg/0.1 mL/site (manufactured by Wako Pure Chemical Industries, Ltd.) was intradermally administered into the dorsum. Thirty minutes after the administration, the rat was anesthetized with diethyl ether and then euthanized by cervical dislocation. The skin was ablated, and the major axis and minor axis of a spot of the pigment exuded into the skin were measured to calculate the area of the pigment.

[4] = system: mouse IgE-dependent ear edema model; experiment: Inhibitory effects on mouse IgE-dependent ear edema model (Test Example 8); format: in vivo; conditions: oral twice a day, dose a multiple of mouse ID50 (Dose column of Table E); for Inhibitory effects in each allergic reaction phase: Immediate phase: mouse ear swelling 1 hour after antigen; for Inhibitory effects in each allergic reaction phase: Late phase: mouse ear swelling 24 hours after antigen; for Inhibitory effects in each allergic reaction phase: Very late phase: mouse ear swelling 7 days after antigen;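 on all read-outs here: 5 or 10 times the mouse skin-reaction ID50 per dose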
Description: To each mouse, 0.25 mL of an anti-DNP-IgE antibody (manufactured by SIGMA-ALDRICH) was intravenously administered for passive sensitization. On the day following the administration, an antigen (DNFB solution; manufactured by Wako Pure Chemical Industries, Ltd.) was applied on the right ear to induce dermatitis (ear swelling). One hour, 24 hours and 7 days after the application of the antigen, the thickness of the right ear was measured by a thickness measuring apparatus (dial thickness gauge). […] The thickness of the right ear before the sensitization was measured beforehand; the inhibition rates of the swelling in immediate phase, late phase, and very late phase were calculated.

[5] = system: histamine-induced skin reaction in mouse; experiment: Skin reaction test in mouse (Test Example 4); format: in vivo; conditions: oral, histamine 3 μg/50 μL/site intradermal, pigment area, read-out: Skin reaction test in mouse ID50
Description: Each mouse was sheared the day before test and fasted overnight. A low, middle or high dose of each test compound suspended in a 0.5% (W/V) CMC-Na aqueous solution was orally administered to the mouse. One hour after the administration, a 1% Evans Blue physiological saline solution (Tokyo Chemical Industry Co., Ltd.) was administered into the caudal vein in a dose of 10 mL/kg, and immediately histamine 3 μg/50 μL/site was intradermally administered into the dorsum. Thirty minutes after the administration, the mouse was anesthetized with diethyl ether and then euthanized by cervical dislocation. The skin was ablated, and the major axis and minor axis of a spot of the pigment exuded into the skin were measured to calculate the area of the pigment.

T1 sequence (P31390 whole entry): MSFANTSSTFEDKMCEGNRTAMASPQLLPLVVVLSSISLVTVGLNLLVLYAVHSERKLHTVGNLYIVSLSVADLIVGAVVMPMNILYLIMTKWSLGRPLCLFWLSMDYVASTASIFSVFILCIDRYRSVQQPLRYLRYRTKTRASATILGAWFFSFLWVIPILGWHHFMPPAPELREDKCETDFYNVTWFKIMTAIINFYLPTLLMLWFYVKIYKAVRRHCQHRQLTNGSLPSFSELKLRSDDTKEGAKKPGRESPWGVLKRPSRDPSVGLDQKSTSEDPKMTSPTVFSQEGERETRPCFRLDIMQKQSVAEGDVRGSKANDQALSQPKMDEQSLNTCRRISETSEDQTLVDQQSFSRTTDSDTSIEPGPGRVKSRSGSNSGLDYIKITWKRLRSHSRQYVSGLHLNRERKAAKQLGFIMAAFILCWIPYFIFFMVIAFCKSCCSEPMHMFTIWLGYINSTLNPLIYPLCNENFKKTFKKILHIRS
T2 sequence (P35367 whole entry): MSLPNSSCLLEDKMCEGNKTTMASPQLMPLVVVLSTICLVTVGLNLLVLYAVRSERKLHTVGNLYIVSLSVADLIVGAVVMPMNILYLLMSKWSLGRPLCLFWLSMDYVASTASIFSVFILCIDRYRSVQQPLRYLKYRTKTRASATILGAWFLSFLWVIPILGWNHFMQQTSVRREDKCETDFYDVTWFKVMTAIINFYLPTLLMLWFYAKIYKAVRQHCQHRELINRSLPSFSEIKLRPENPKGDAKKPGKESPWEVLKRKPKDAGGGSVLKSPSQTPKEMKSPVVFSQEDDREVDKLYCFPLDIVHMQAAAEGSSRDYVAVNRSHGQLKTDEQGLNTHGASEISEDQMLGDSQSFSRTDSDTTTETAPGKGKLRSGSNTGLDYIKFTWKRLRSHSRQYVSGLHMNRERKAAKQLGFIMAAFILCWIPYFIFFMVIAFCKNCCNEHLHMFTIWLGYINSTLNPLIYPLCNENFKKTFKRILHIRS

For `COc1ccc(C(OC2CCN(Cc3cccc(C(=O)O)n3)CC2)c2ccccc2)cc1` (centres unmarked) [Example 17], the IC50 [1] was 110 nM.
Compound `O=C(O)c1cncc(CN2CCC(OC(c3ccccc3)c3ccc(F)cc3)CC2)c1` (centres unmarked) [Example 88] has an IC50 [2] of 21 nM.
For `O=C(O)c1ccnc(CN2CCC(OC(c3ccccc3)c3cccc(Cl)c3)CC2)c1` (centres unmarked) [Example 117], the IC50 [2] was 24 nM.
In the case of `Cc1ccc(C(OC2CCN(Cc3cc(C(=O)O)ccn3)CC2)c2ccccc2)cc1` (centres unmarked) [Example 41], the IC50 [2] is reported as 18 nM and the IC50 [1] is reported as 19 nM.
With `O=C(O)c1ccnc(CN2CC[C@H](OC(c3ccccc3)c3ccccc3)C2)c1` [Example 131, 2-((S)-3-Benzhydryloxypyrrolidin-1-ylmethyl)isonicotinic acid] the IC50 [2] was 15 nM.
For `O=C(O)c1ccnc(CN2CC[C@H](OC(c3ccc(F)cc3)c3ccc(F)cc3)C2)c1` [Example 154], the IC50 [2] was 13 nM.
With `O=C(O)c1ccnc(CN2CCC(OC(c3ccc(F)cc3)c3ccc(F)cc3)CC2)c1` [Example 124] the IC50 [2] was 8.4 nM.
For `Cc1ccc(C(OC2CCN(Cc3ccc(C(=O)O)o3)CC2)c2ccccc2)cc1` (centres unmarked) [Example 46], the IC50 [1] was 68 nM.
In the case of `COc1ccc(CN2CCC(OC(c3ccccc3)c3ccc(F)c(F)c3)CC2)nc1C(=O)O` (centres unmarked) [Example 53], the IC50 [2] is reported as 14 nM.
`O=C(O)c1ccnc(CN2CCC(OC(c3ccccc3)c3ccc(Cl)cc3)CC2)c1` (centres unmarked) [Example 42] was tested, and the ED50 [3] was 1.8 mg/kg, the IC50 [2] was 19 nM and the IC50 [1] was 24 nM.
Work on `O=C(O)c1cccc(CN2CCN(C(c3ccccc3)c3ccc(F)cc3)CC2)n1` (centres unmarked) [Example 143] yielded an IC50 [2] of 24 nM.
`O=C(O)c1ccnc(CN2CCC(OC(c3ccccc3)c3cccc(F)c3)CC2)c1` (centres unmarked) [Example 40] showed an IC50 [2] of 26 nM and an IC50 [1] of 1.2 nM.
`O=C(O)c1ccnc(CN2CCC(OC(c3ccc(F)cc3)c3ccccc3F)CC2)c1` (centres unmarked) [Example 87] was tested, and the IC50 [2] was 21 nM, the “Inhibitory effects in each allergic reaction phase: Immediate phase” value (“Inhibitory effects … Immediate phase” below) [4] was “++ (++ Inhibitory rate 45 to 20%)” and the “Inhibitory effects in each allergic reaction phase: Late phase” value [4] was “++ (++ Inhibitory rate 45 to 20%)”. For the same compound, the “Inhibitory effects in each allergic reaction phase: Very late phase” value (from here on “Inhibitory effects … Very late phase”) [4] was “+ (+ Inhibitory rate 19 to 10%)” and the ED50 [5] was 0.06 mg/kg.
Work on `O=C(O)c1ccc(CN2CCC(OC(c3ccccc3)c3ccccc3)CC2)[nH]1` [Example 35, 5-(4-Benzhydryloxypiperidin-1-ylmethyl)-1H-pyrrole-2-carboxylic acid] yielded an IC50 [2] of 15 nM and an IC50 [1] of 61 nM.
`O=C(O)c1cc(CN2CCC(OC(c3ccccc3)c3ccccc3)CC2)ccn1` [Example 29] was tested, and the IC50 [1] was 63 nM.
Work on `O=C(O)c1ccc(CN2CCC(OC(c3ccccc3)c3ccc(Cl)cc3)CC2)o1` (centres unmarked) [Example 43] yielded an IC50 [2] of 12 nM and an IC50 [1] of 18 nM.
Work on `O=C(O)c1cccc(CN2CCC(=C3c4ccc(Cl)cc4CCc4cccnc43)CC2)n1` [Example 68] yielded an IC50 [1] of 40 nM.
With `O=C(O)c1nc(CN2CCC(OC(c3ccccc3)c3ccc(Cl)cc3)CC2)cs1` (centres unmarked) [Example 44] the IC50 [1] was 20 nM.
`O=C(O)c1cccc(CN2CCN(C(c3ccccc3)c3ccc(Cl)cc3)CC2)n1` (centres unmarked) [Example 23] gave an ED50 [3] of 1.8 mg/kg, an IC50 [2] of 30 nM and an IC50 [1] of 36 nM.
Work on `O=C(O)c1cc(CN2CCC(OC(c3ccccc3)c3ccc(F)cc3)CC2)cs1` (centres unmarked) [Example 89] yielded an IC50 [2] of 7.5 nM.
For `O=C(O)c1ccnc(CN2CCC(=C3c4ccccc4C=Cc4ccccc43)CC2)c1` [Example 72], the IC50 [2] was 8.9 nM and the ED50 [5] was 0.06 mg/kg.
`O=C(O)c1ccnc(CN2CCC(OC(c3ccccc3)c3ccccc3)CC2)c1` [Example 27] was tested, and the IC50 [2] was 8.9 nM, the “Inhibitory effects … Immediate phase” value [4] was “++ (++ Inhibitory rate 45 to 20%)” and the “Inhibitory effects in each allergic reaction phase: Late phase” value [4] was “++ (++ Inhibitory rate 45 to 20%)”. For the same compound, the “Inhibitory effects … Very late phase” value [4] was “++ (++ Inhibitory rate 45 to 20%)”, the ED50 [5] was 0.03 mg/kg and the IC50 [1] was 31 nM.
With `O=C(O)c1ccnc(CN2CCC(OC(c3ccc(F)cc3)c3cccc(F)c3)CC2)c1` (centres unmarked) [Example 52] the IC50 [2] was 6.7 nM and the ED50 [5] was 0.1 mg/kg.
`O=C(O)c1nc(CN2CCC(OC(c3ccccc3)c3ccccc3)CC2)cs1` [Example 36] showed an IC50 [1] of 99 nM.
For `O=C(O)c1cccc(CN2CCC(OC(c3ccc(F)cc3)c3ccccc3F)CC2)n1` (centres unmarked) [Example 86], the IC50 [2] was 16 nM.
`O=C(O)c1cccc(CN2CCC(OC(c3ccccc3)c3ccccc3)C2)n1` (centres unmarked) [Example 24] was tested, and the IC50 [2] was 9.2 nM and the IC50 [1] was 8.2 nM.
In the case of `O=C(O)c1cccc(CN2CCC(OC(c3ccccc3)c3ccccc3F)CC2)n1` (centres unmarked) [Example 20], the IC50 [2] is reported as 29 nM and the IC50 [1] is reported as 69 nM.
In the case of `O=C(O)c1csc(CN2CCC(OC(c3ccccc3)c3ccccc3)CC2)n1` [Example 4], the IC50 [1] is reported as 39 nM.
With `O=C(O)c1cccc(CN2CC[C@@H](OC(c3ccccc3)c3ccccc3)C2)n1` [Example 128, 6-((R)-3-Benzhydryloxypyrrolidin-1-ylmethyl)pyridine-2-carboxylic acid] the IC50 [2] was 6.1 nM.
`O=C(O)c1cccc(CN2CCC(OC(c3ccccc3)c3cccc(Cl)c3)CC2)n1` (centres unmarked) [Example 116] was tested, and the IC50 [2] was 17 nM.
`O=C(O)c1cnn(CN2CCC(OC(c3ccccc3)c3ccccc3)CC2)c1` [Example 84] showed an IC50 [2] of 17 nM.
Compound `O=C(O)c1ccnc(CN2CCC(OC(c3ccccc3)c3ccc(F)c(F)c3)CC2)c1` (centres unmarked) [Example 51] has an IC50 [2] of 4.9 nM and an ED50 [5] of 0.07 mg/kg.
`O=C(O)c1cccc(CN2CCC(OC(c3ccccc3)c3cccc(C(F)(F)F)c3)CC2)n1` (centres unmarked) [Example 26] was tested, and the IC50 [1] was 83 nM.
In the case of `O=C(O)c1cccc(CN2CC[C@H](OC(c3ccc(F)cc3)c3ccc(F)cc3)C2)n1` [Example 155], the IC50 [2] is reported as 10 nM.
With `O=C(O)c1cccc(CN2CCC(OC(c3ccccc3)c3ccc(F)cc3)CC2)n1` (centres unmarked) [Example 18] the ED50 [3] was 0.2 mg/kg and the IC50 [1] was 89 nM.
Compound `O=C(O)COCCN1CCN(C(c2ccccc2)c2ccc(Cl)cc2)CC1` (centres unmarked) [Cetirizine] has an IC50 [1] of 88 nM.
In the case of `O=C(O)c1cccc(CN2CCC(=C3c4ccccc4CCc4ccccc43)CC2)c1` [Example 74], the ED50 [3] is reported as 2.1 mg/kg.
Compound `O=C(O)c1cncc(CN2CCC(OC(c3ccccc3)c3ccccc3)CC2)c1` [Example 30] has an IC50 [2] of 15 nM and an IC50 [1] of 42 nM.
`O=C(O)c1cccc(CN2CCC(=C3c4ccccc4COc4ccccc43)CC2)n1` [Example 80] showed an IC50 [2] of 17 nM.
`O=C(O)c1cccc(CN2CCC(OC(c3ccc(F)cc3)c3cccc(F)c3)CC2)n1` (centres unmarked) [Example 49] was tested, and the ED50 [3] was 1.5 mg/kg, the IC50 [2] was 17 nM and the IC50 [1] was 89 nM.
In the case of `O=C(O)c1ccc(CN2CCC(OC(c3ccccc3)c3ccccc3)CC2)o1` [Example 1, 5-(4-Benzhydryloxypiperidin-1-ylmethyl)furan-2-carboxylic acid], the IC50 [2] is reported as 14 nM and the IC50 [1] is reported as 81 nM.
For `O=C(O)c1cccc(CN2CC[C@H](OC(c3ccccc3)c3ccccc3)C2)n1` [Example 129, 6-((S)-3-Benzhydryloxypyrrolidin-1-ylmethyl)pyridine-2-carboxylic acid], the IC50 [2] was 5.1 nM, the “Inhibitory effects … Immediate phase” value [4] was “++ (++ Inhibitory rate 45 to 20%)” and the “Inhibitory effects in each allergic reaction phase: Late phase” value [4] was “++ (++ Inhibitory rate 45 to 20%)”. For the same compound, the “Inhibitory effects … Very late phase” value [4] was “++ (++ Inhibitory rate 45 to 20%)” and the ED50 [5] was 0.04 mg/kg.
`O=C(O)c1cc(F)cc(CN2CCC(OC(c3ccccc3)c3ccccc3)CC2)c1` [Example 6] gave an ED50 [3] of 0.6 mg/kg, an IC50 [2] of 11 nM and an IC50 [1] of 38 nM.
With `O=C(O)c1cccc(CN2CCC(=C3c4ccccc4CCc4ccccc43)CC2)n1` [Example 75] the ED50 [3] was 1.2 mg/kg, the IC50 [2] was 23 nM and the IC50 [1] was 67 nM.
In the case of `O=C(O)c1coc(CN2CCC(OC(c3ccccc3)c3ccccc3)CC2)n1` [Example 3], the IC50 [1] is reported as 55 nM.
In the case of `O=C(O)c1cccc(CN2CCC(OC(c3ccccc3)c3cccc(F)c3)CC2)n1` (centres unmarked) [Example 25], the IC50 [2] is reported as 22 nM and the IC50 [1] is reported as 12 nM.
For `O=C(O)c1ccc(CN2CCC(OC(c3ccccc3)c3ccc(F)cc3)CC2)cn1` (centres unmarked) [Example 85], the IC50 [2] was 22 nM.
